Several values for one entry are separate records, joined by “and”; a condition that tells them apart may be missing. Identical values can stand only once.
Experiments:
[1] = tested on: IR-induced senescent RPE-1 cells; assay: Crystal violet and resazurin assays in IR-induced senescent RPE-1; format: cell-based, human
Experimental: (§1) To obtain ionizing radiation (IR)-induced senescent cells, proliferating RPE-1 cells were exposed to a single dose of X-rays (20 Gy) using Pantak HF160 (Gulmay, Surrey, UK) X-ray instrument equipped with Pantak Seifert HF320 generator, MXR-161 X-ray tube (Comet AG, Flamatt, Switzerland), and an aluminum filter using current 1–10 mA. After irradiation, the cells were cultured for an additional 7 days until the development of the senescent phenotype ([Salovska et al., 2022]). To induce docetaxel-induced senescence (DIS), BJ cells were exposed to 5 nM docetaxel for 7 days, as described previously ([Sapega et al., 2018]). To prepare temozolomide (TMZ)-induced senescence, U87 cells were exposed to 100 μM TMZ for 14 days.
(§2) Twenty-four hours before treatment, cells were plated in 96-well plates at densities of 2,850 cells per well for senescent RPE-1 (IR-RPE-1), 3,350 cells per well for proliferating RPE-1 and senescent BJ (DIS-BJ), and 5,000 cells per well for U373, T98, A172, U87, TMZ-U87, and proliferating BJ cells.
(§3) For the crystal violet assay, the cells were washed twice with 150 μL PBS and stained with 30 μL 0.5% (w/v) crystal violet in 20% methanol for 15 mins. Next, the plates were washed five times with ddH2O and left to dry overnight. Crystal violet was solubilized with 75 μL 0.2% Triton X-100 (Sigma) in PBS for 15 mins. The absorbance was read at 595 nm using a microplate reader (Envision, PerkinElmer, Waltham, MA, USA). The absorbance of crystal violet in treated cells was expressed as a percentage of absorbance in untreated cells. Each condition was measured at least in triplicate.
(§4) For the resazurin assay, 200 μL of the culture medium of each well was exchanged for 100 μL of resazurin (stock solution 30 mg/mL; Sigma, St. Louis, MO, USA) diluted 10 times in the culture medium, and the cells were incubated at 37°C for 1–3 h. Reading of fluorescence was done using a microplate reader (PerkinElmer, Waltham, MA, USA). Absolute values of fluorescence were related to the values of untreated cells. Each condition was measured at least in triplicate. […]

TMZ-U87 cells = assay: Time-lapse microscopy with annexin V of TMZ-induced senescent U87; format: cell-based, human; conditions: 0–100 μM, 72 h
Experimental: as §1
(§5) For auto-monitoring of cells, Incucyte SX1 Live-Cell Analysis System (Sartorius, Göttingen, Germany), located in an incubator maintained at 37°C under a 5% CO2 atmosphere and 95% humidity, was utilized. The images (1,408 × 1,040 pixels at 1.24 microns/pixel) were acquired using a 10× objective lens in phase contrast, red fluorescence (excitation: 585 ± 20 nm, emission: 635 [625, 705] nm, acquisition time: 100 ms) channels every 60 min during 72 h. The first image was acquired 30 min after adding compounds. The images were processed to measure cell confluence using Incucyte software (version 2022A). […]

mTOR kinase = biological target: T1, mTOR kinase (Homo sapiens, UniProt P42345); assay: In vitro mTOR kinase enzyme assay (Transcreener ADP2 FI); format: biochemical
T1 construct: purchased Invitrogen
Experimental: The mTOR enzyme assay was used to determine the mTOR kinase activity of compound 3. Enzymatic reaction mixture was prepared as follows: mTOR enzyme (10 μg/mL, Invitrogen), ATP (10 μM), p70S6K peptide (10 μg/mL, SignalChem), and kinase buffer (50 mM HEPES, pH 7.5, 1 mM EGTA, 3 mM MnCl2, 10 mM MgCl2, 2 mM DTT, and 0.01% Tween-20). The reaction was performed in black half-area 96-wells at room temperature for 1 h, then stopped by adding ADP detection buffer (Transcreener ADP^2 FI Assay, BellBrook labs) and incubated at room temperature for 1 h. Compound concentration was 10, 20, 40, 80, and 100 μM. The final DMSO concentration was 1%. PHERAstar microplate reader was used for measuring the fluorescence intensity (excitation 575 nm, emission 620 nm).

RPE-1 cells = assay: Time-lapse microscopy (Incucyte) of proliferating RPE-1; format: cell-based, human; conditions: 0, 10, 50, 80, 100 μM, 72 h
Experimental: For auto-monitoring of cells, Incucyte SX1 Live-Cell Analysis System (Sartorius, Göttingen, Germany), located in an incubator maintained at 37°C under a 5% CO2 atmosphere and 95% humidity, was utilized. The images (1,408 × 1,040 pixels at 1.24 microns/pixel) were acquired using a 10× objective lens in phase contrast, red fluorescence (excitation: 585 ± 20 nm, emission: 635 [625, 705] nm, acquisition time: 100 ms) channels every 60 min during 72 h. The first image was acquired 30 min after adding compounds. The images were processed to measure cell confluence using Incucyte software (version 2022A). Annexin V – Dy647, Apronex (diluted 1:1,000) was used for apoptotic cell staining.

IR-RPE-1 senescent cells = assay: Time-lapse microscopy of IR-senescent RPE-1; format: cell-based, human; conditions: 100 μM, 72 h
Experimental: as §1, §5

[2] = tested on: glioblastoma T98, A172 and U87 cells; assay: Crystal violet and resazurin assays in further glioblastoma lines; format: cell-based, human; conditions: 0–100 μM, 24 h
Experimental: as §2, §3
(§6) For the resazurin assay, 200 μL of the culture medium of each well was exchanged for 100 μL of resazurin (stock solution 30 mg/mL; Sigma, St. Louis, MO, USA) diluted 10 times in the culture medium, and the cells were incubated at 37°C for 1–3 h. Reading of fluorescence was done using a microplate reader (PerkinElmer, Waltham, MA, USA). Absolute values of fluorescence were related to the values of untreated cells. Each condition was measured at least in triplicate.

[3] = tested on: temozolomide (TMZ)-induced senescent U87 cells; assay: Crystal violet and resazurin assays in TMZ-induced senescent U87; format: cell-based, human; conditions: 0–100 μM, 24 h
Experimental: as §1, with “To prepare temozolomide (TMZ)-induced senescence, U87 cells were exposed to 100 μM TMZ for 14 days.” left out
as §3, with “Next, the plates were washed five times with ddH2O and left to dry overnight. Crystal violet was solubilized with 75 μL 0.2% Triton X-100 (Sigma) in PBS for 15 mins.” left out
as §4, with “USA).” for “USA). Absolute values of fluorescence were related to the values of untreated cells. Each condition was measured at least in triplicate.”

[4] = tested on: docetaxel (DTX)-induced senescent BJ cells; assay: Crystal violet and resazurin assays in docetaxel-induced senescent BJ; format: cell-based, human
Experimental: as §1, with “To prepare temozolomide (TMZ)-induced senescence, U87 cells were exposed to 100 μM TMZ for 14 days.” left out
as §3, with “Next, the plates were washed five times with ddH2O and left to dry overnight. Crystal violet was solubilized with 75 μL 0.2% Triton X-100 (Sigma) in PBS for 15 mins.” left out
as §4, with “USA).” for “USA). Absolute values of fluorescence were related to the values of untreated cells. Each condition was measured at least in triplicate.”

BJ, RPE-1 and U373 cells = assay: Crystal violet and resazurin proliferation screen in proliferating cells; format: cell-based, human; conditions: RPE-1, U373, 0, 10, 50, 80, 100 μM, 24 h
Experimental: All cell lines used in the study were obtained from the American Type Culture Collection (ATCC, Manassas, VA, USA). Human telomerase-immortalized retinal pigment epithelial cells RPE-1, glioblastoma U-87 MG, glioblastoma U373MG, glioblastoma T98G, glioblastoma A-172, breast adenocarcinoma MDA-MB-231, prostate carcinoma DU-145, and non-small cell lung cancer NCI-H1299 cell lines were cultured in Dulbecco’s modified Eagle’s medium (DMEM, Thermo Fisher Scientific, Waltham, MA, USA) with high glucose (4.5 g/L). Primary human skin BJ fibroblasts were cultured in Dulbecco’s modified Eagle’s medium (DMEM, Thermo Fisher Scientific, Waltham, MA, USA) with low glucose (1 g/L). Both cell culture media were supplemented with 10% fetal bovine serum (FBS, Gibco/Thermo Fisher Scientific) and non-essential amino acids (NEAA), 100 units/mL of penicillin, and 100 μg/mL of streptomycin (Sigma-Aldrich). Cells were kept at 37°C under a 5% CO2 atmosphere and 95% humidity.
as §2, §3, §6

With `Nc1ccc(C(=O)Nc2cccc(-c3c[nH]c4ncccc34)c2)cc1O` [Compound 3, N-(3-(1H-pyrrolo[2,3-b]pyridin-3-yl)phenyl)-4-amino-3-hydroxybenzamide] as the compound, how does the “selectivity for senescent versus proliferating cells” value ([1]; IR-RPE-1 vs proliferating RPE-1, crystal violet and resazurin) read?
Its value is “non-selective manner”.

What about the “sensitivity of senescent cells (crystal violet and resazurin)” value ([1]; IR-induced senescent RPE-1, 0–100 μM, 24 h) of the same compound?
The value was “significantly sensitive”.

What about the “cell phenotype in time-lapse microscopy, annexin V staining” value (TMZ-U87 cells) of the same compound?
Its value is “loss of cell adhesion followed by cell death”.

And the IC50 (mTOR kinase; ATP 10 μM, p70S6K peptide, 1 h)?
The IC50 was ~70 µM and 70 µM.

What about the “inhibition of mTOR kinase activity” value (mTOR kinase; at 100 μM) of the same compound?
The value was “complete inhibition”.

And the “concentration from which mTOR kinase activity is inhibited” value (mTOR kinase; tested at 10, 20, 40, 80, 100 μM)?
The value was 10 µM.

And the “effect on cell proliferation (cell confluence, time-lapse)” value (RPE-1 cells)?
The value was “showed the effect on RPE-1 cell proliferation”.

And the “kind of effect on senescent cells” value (IR-RPE-1 senescent cells)?
Its value is “rather senomorphic than senolytic effect”.

And the “effect in crystal violet and resazurin assays” value [2]?
Its value is “significantly affected”.

What about the “effect on the readout of crystal violet and resazurin assays” value [3] of the same compound?
The value was “similarly to proliferating U87 cells”.

And the “selectivity for senescent versus proliferating cells” value ([4]; DIS-BJ vs proliferating BJ, crystal violet and resazurin)?
The value was “non-selective manner”.

What about the “sensitivity of senescent cells (crystal violet and resazurin)” value ([4]; DTX-induced senescent BJ, 0–100 μM, 24 h) of the same compound?
Its value is “significantly sensitive”.

And the “effect on the readout of crystal violet and resazurin assays” value (BJ, RPE-1 and U373 cells)?
The value was “significant suppressive effect”.
